Test results as given in patent publication US20240108006A1, “PESTICIDALLY ACTIVE HETEROAROMATIC COMPOUNDS” (SYNGENTA CROP PROTECTION AG, priority 2021, published 2024).

What was measured:
Format in all cases: in vivo
[1] = system: Myzus persicae; experiment: Example B7: Myzus persicae (green peach aphid), intrinsic activity, sucrose solution 24-well; conditions: 120 h, application rate of 12.5 ppm, 5 days after infestation, read-out: control (mortality)
Procedure, shortened: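 Compounds from 10,000 ppm DMSO stocks were mixed into sucrose solution in wells at a rate of 12.5 ppm. Aphid-infested pea seedlings were placed on a Parafilm membrane over the solution, so aphids fed through it. Mortality was scored 5 days after infestation.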

[2] = system: Plutella xylostella; experiment: Example B8: Plutella xylostella (diamond back moth), artificial diet 24-well, eggs; conditions: 192 h, application rate of 200 ppm, 8 days after infestation, read-out: effect in at least one of the two categories (mortality or growth inhibition)
Procedure, shortened: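 Plutella eggs placed onto dried, compound-treated artificial diet, the aqueous test solutions diluted from 10,000 ppm DMSO stocks. Eight days post-infestation, larvae rated for mortality and growth inhibition relative to untreated controls.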

[3] = system: Diabrotica balteata; experiment: Example B2: Diabrotica balteata (corn root worm), maize sprouts, L2 larvae; conditions: 96 h, application rate of 200 ppm, 4 days after infestation, read-out: control in at least one of the two categories (mortality or growth inhibition)
Description: Example B2: Diabrotica balteata (Corn Root Worm)
Maize sprouts placed onto an agar layer in 24-well microtiter plates were treated with aqueous test solutions prepared from 10,000 ppm DMSO stock solutions by spraying. After drying, the plates were infested with L2 larvae (6 to 10 per well). The samples were assessed for mortality and growth inhibition in comparison to untreated samples 4 days after infestation.
(§1) The following compounds gave an effect of at least 80% control in at least one of the two categories (mortality or growth inhibition) at an application rate of 200 ppm: […]

[4] = system: Euschistus heros; experiment: Example B3: Euschistus heros (neotropical brown stink bug), soybean leaves, N2 nymphs; conditions: 120 h, application rate of 200 ppm, 5 days after infestation, read-out: control in at least one of the two categories (mortality or growth inhibition)
Description: Example B3: Euschistus heros (Neotropical Brown Stink Bug)
Soybean leaves on agar in 24-well microtiter plates were sprayed with aqueous test solutions prepared from 10,000 ppm DMSO stock solutions. After drying the leaves were infested with N2 nymphs. The samples were assessed for mortality and growth inhibition in comparison to untreated samples 5 days after infestation.
as §1

[5] = system: Chilo suppressalis; experiment: Example B1: Chilo suppressalis (striped rice stemborer), artificial diet, L2 larvae; conditions: 144 h, application rate of 200 ppm, 6 days after infestation, read-out: control in at least one of the three categories (mortality, anti-feedant effect, or growth inhibition)
Procedure, shortened: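 L2 larvae (6-8 per well) were placed on dried artificial diet that had been dosed with aqueous dilutions of 10,000 ppm DMSO stock solutions. After 6 days, control was credited if mortality, antifeedant effect or growth inhibition was higher than in untreated samples.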

[6] = system: Spodoptera littoralis; experiment: Example B9: Spodoptera littoralis (Egyptian cotton leaf worm), cotton leaf discs, L1 larvae; conditions: foliar, 72 h, application rate of 200 ppm, 3 days after infestation, read-out: control in at least one of the three categories (mortality, anti-feedant effect, or growth inhibition)
Procedure, shortened: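 Five L1 larvae placed on sprayed, dried cotton leaf discs; spray solutions aqueous, from 10,000 ppm DMSO stocks. Control given when mortality, anti-feedant effect or growth inhibition exceeds untreated samples at 3 days.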

[7] = system: Myzus persicae; experiment: Example B5: Myzus persicae (green peach aphid), feeding/contact activity; conditions: 144 h, application rate of 200 ppm, 6 days after infestation
Description: Example B5: Myzus persicae (Green Peach Aphid):Feeding/Contact Activity
Sunflower leaf discs were placed onto agar in a 24-well microtiter plate and sprayed with aqueous test solutions prepared from 10,000 ppm DMSO stock solutions. After drying, the leaf discs were infested with an aphid population of mixed ages. The samples were assessed for mortality 6 days after infestation.

C[C@H](NC(=O)Nc1cc(F)c(Br)cc1OC(F)F)c1ncnn1-c1ncccn1 [Example P390, 1-[4-bromo-2-(difluoromethoxy)-5-fluoro-phenyl]-3-[(1S)-1-(2-pyrimidin-2-yl-1,2,4-triazol-3-yl)ethyl]urea]
≥ 80%: mortality at 12.5 ppm [1] | percent effect (mortality or growth inhibition) at 200 ppm [2] | percent control (mortality or growth inhibition) at 200 ppm [3] | percent control (mortality or growth inhibition) at 200 ppm [4] | percent control (mortality, anti-feedant effect or growth inhibition) at 200 ppm [5] | percent control (mortality, anti-feedant effect or growth inhibition) at 200 ppm [6]

C[C@H](NC(=O)Nc1cc(OC(F)(F)C(F)F)c(Cl)cc1Cl)c1ncnn1-c1ccc(=O)n(C)n1 [Example P269, 1-[2,4-dichloro-5-(1,1,2,2-tetrafluoroethoxy)phenyl]-3-[(1S)-1-[2-(1-methyl-6-oxo-pyridazin-3-yl)-1,2,4-triazol-3-yl]ethyl]urea]
≥ 80%: mortality at 12.5 ppm [1] | percent control (mortality or growth inhibition) at 200 ppm [3] | percent control (mortality or growth inhibition) at 200 ppm [4] | percent control (mortality, anti-feedant effect or growth inhibition) at 200 ppm [6]

C[C@H](NC(=O)Nc1cc(C#N)c(Cl)cc1F)c1ncnn1-c1ncccn1 [Example P182, 1-(4-chloro-5-cyano-2-fluoro-phenyl)-3-[(1S)-1-(2-pyrimidin-2-yl-1,2,4-triazol-3-yl)ethyl]urea]
≥ 80%: mortality at 12.5 ppm [1] | percent effect (mortality or growth inhibition) at 200 ppm [2] | percent control (mortality or growth inhibition) at 200 ppm [4] | percent control (mortality, anti-feedant effect or growth inhibition) at 200 ppm [5] | percent control (mortality, anti-feedant effect or growth inhibition) at 200 ppm [6]

C[C@H](NC(=O)Nc1ccc(F)cc1C#N)c1ncnn1-c1ncccn1 [Example P62, 1-(2-cyano-4-fluoro-phenyl)-3-[(1S)-1-(2-pyrimidin-2-yl-1,2,4-triazol-3-yl)ethyl]urea]
≥ 80%: mortality at 200 ppm [7] | percent control (mortality or growth inhibition) at 200 ppm [4]

C[C@H](NC(=O)Nc1ccc(Br)cc1OC(F)F)c1ncnn1-c1ncccn1 [Example P58, 1-[4-bromo-2-(difluoromethoxy)phenyl]-3-[(1S)-1-(2-pyrimidin-2-yl-1,2,4-triazol-3-yl)ethyl]urea]
≥ 80%: mortality at 12.5 ppm [1] | percent effect (mortality or growth inhibition) at 200 ppm [2] | percent control (mortality or growth inhibition) at 200 ppm [3] | mortality at 200 ppm [7] | percent control (mortality, anti-feedant effect or growth inhibition) at 200 ppm [5] | percent control (mortality, anti-feedant effect or growth inhibition) at 200 ppm [6]

CC(NC(=O)Nc1ccc(C(F)(F)F)cc1C(F)(F)F)c1ncnn1-c1ncccn1 (centres unmarked) [Example P1, 1-[2,4-bis(trifluoromethyl)phenyl]-3-[1-(2-pyrimidin-2-yl-1,2,4-triazol-3-yl)ethyl]urea]
≥ 80%: mortality at 12.5 ppm [1] | percent effect (mortality or growth inhibition) at 200 ppm [2] | percent control (mortality or growth inhibition) at 200 ppm [3] | percent control (mortality or growth inhibition) at 200 ppm [4] | percent control (mortality, anti-feedant effect or growth inhibition) at 200 ppm [5] | percent control (mortality, anti-feedant effect or growth inhibition) at 200 ppm [6]

C[C@H](NC(=O)Nc1cc(C(F)(F)F)c(Cl)cc1Br)c1nccnc1-c1ccc(C#N)cn1 [Example P246, 1-[2-bromo-4-chloro-5-(trifluoromethyl)phenyl]-3-[(1S)-1-[3-(5-cyano-2-pyridyl)pyrazin-2-yl]ethyl]urea]
≥ 80%: percent control (mortality or growth inhibition) at 200 ppm [3] | percent control (mortality or growth inhibition) at 200 ppm [4] | percent control (mortality, anti-feedant effect or growth inhibition) at 200 ppm [6]

C[C@H](NC(=O)Nc1cc(C#N)c(F)cc1F)c1ncnn1-c1ncccn1 [Example P391, 1-(5-cyano-2,4-difluoro-phenyl)-3-[(1S)-1-(2-pyrimidin-2-yl-1,2,4-triazol-3-yl)ethyl]urea]
≥ 80%: mortality at 12.5 ppm [1] | percent control (mortality or growth inhibition) at 200 ppm [4] | percent control (mortality, anti-feedant effect or growth inhibition) at 200 ppm [5]

C[C@H](NC(=O)Nc1cnc(Br)cc1Br)c1ncnn1-c1ccc(C#N)cn1 [Example P255, 1-[(1S)-1-[2-(5-cyano-2-pyridyl)-1,2,4-triazol-3-yl]ethyl]-3-(4,6-dibromo-3-pyridyl)urea]
≥ 80%: percent effect (mortality or growth inhibition) at 200 ppm [2] | percent control (mortality or growth inhibition) at 200 ppm [4] | percent control (mortality, anti-feedant effect or growth inhibition) at 200 ppm [5] | percent control (mortality, anti-feedant effect or growth inhibition) at 200 ppm [6]

C[C@H](NC(=O)Nc1ccc(C(F)(F)F)cc1I)c1ncnn1-c1ncccn1 [Example P72, 1-[2-iodo-4-(trifluoromethyl)phenyl]-3-[(1S)-1-(2-pyrimidin-2-yl-1,2,4-triazol-3-yl)ethyl]urea]
≥ 80%: mortality at 12.5 ppm [1] | percent effect (mortality or growth inhibition) at 200 ppm [2] | percent control (mortality or growth inhibition) at 200 ppm [4] | percent control (mortality, anti-feedant effect or growth inhibition) at 200 ppm [5] | percent control (mortality, anti-feedant effect or growth inhibition) at 200 ppm [6]

C[C@H](NC(=O)Nc1ccc(C(F)(F)F)nc1Cl)c1ncnn1-c1ncccn1 [Example P18, 1-[2-chloro-6-(trifluoromethyl)-3-pyridyl]-3-[(1S)-1-(2-pyrimidin-2-yl-1,2,4-triazol-3-yl)ethyl]urea]
≥ 80%: mortality at 12.5 ppm [1] | percent control (mortality or growth inhibition) at 200 ppm [4] | percent control (mortality, anti-feedant effect or growth inhibition) at 200 ppm [6]

Cc1cc(C(F)(F)F)ncc1NC(=O)N[C@@H](C)c1ncnn1-c1ncccn1 [Example P328, 1-[4-methyl-6-(trifluoromethyl)-3-pyridyl]-3-[(1S)-1-(2-pyrimidin-2-yl-1,2,4-triazol-3-yl)ethyl]urea]
≥ 80%: mortality at 12.5 ppm [1] | mortality at 200 ppm [7] | percent control (mortality or growth inhibition) at 200 ppm [4] | percent control (mortality, anti-feedant effect or growth inhibition) at 200 ppm [5]

C[C@H](NC(=O)Nc1cnc(Br)cc1Br)c1ncnn1-c1ncccn1 [Example P55, 1-(4,6-dibromo-3-pyridyl)-3-[(1S)-1-(2-pyrimidin-2-yl-1,2,4-triazol-3-yl)ethyl]urea]
≥ 80%: mortality at 12.5 ppm [1] | percent effect (mortality or growth inhibition) at 200 ppm [2] | percent control (mortality or growth inhibition) at 200 ppm [4] | percent control (mortality, anti-feedant effect or growth inhibition) at 200 ppm [5] | percent control (mortality, anti-feedant effect or growth inhibition) at 200 ppm [6]

C[C@@H](c1ncnn1-c1ncccn1)N(C)C(=O)Nc1cc(OC(F)(F)C(F)F)c(Cl)cc1Cl [Example P133, 3-[2,4-dichloro-5-(1,1,2,2-tetrafluoroethoxy)phenyl]-1-methyl-1-[(1S)-1-(2-pyrimidin-2-yl-1,2,4-triazol-3-yl)ethyl]urea]
≥ 80%: mortality at 12.5 ppm [1] | percent effect (mortality or growth inhibition) at 200 ppm [2] | percent control (mortality or growth inhibition) at 200 ppm [3] | mortality at 200 ppm [7] | percent control (mortality, anti-feedant effect or growth inhibition) at 200 ppm [5] | percent control (mortality, anti-feedant effect or growth inhibition) at 200 ppm [6]

C[C@@H](c1ncnn1-c1ncccn1)N(C)C(=O)N(C)c1cc(OC(F)(F)C(F)F)c(Cl)cc1Cl [Example P132, 1-[2,4-dichloro-5-(1,1,2,2-tetrafluoroethoxy)phenyl]-1,3-dimethyl-3-[(1S)-1-(2-pyrimidin-2-yl-1,2,4-triazol-3-yl)ethyl]urea]
≥ 80%: mortality at 12.5 ppm [1] | percent effect (mortality or growth inhibition) at 200 ppm [2] | percent control (mortality or growth inhibition) at 200 ppm [3] | mortality at 200 ppm [7] | percent control (mortality, anti-feedant effect or growth inhibition) at 200 ppm [5] | percent control (mortality, anti-feedant effect or growth inhibition) at 200 ppm [6]

C[C@H](NC(=O)Nc1cc(OC(F)(F)C(F)F)c(Cl)cc1Cl)c1nccnc1-c1ncccn1 [Example P135, 1-[2,4-dichloro-5-(1,1,2,2-tetrafluoroethoxy)phenyl]-3-[(1S)-1-(3-pyrimidin-2-ylpyrazin-2-yl)ethyl]urea]
≥ 80%: mortality at 12.5 ppm [1] | percent effect (mortality or growth inhibition) at 200 ppm [2] | percent control (mortality or growth inhibition) at 200 ppm [3] | mortality at 200 ppm [7] | percent control (mortality, anti-feedant effect or growth inhibition) at 200 ppm [5] | percent control (mortality, anti-feedant effect or growth inhibition) at 200 ppm [6]
